Results reported in patent publication US11214772B2, “Production method for retinal tissue” (SUMITOMO DAINIPPON PHARMA CO., LTD., priority 2014, dated 2022).

What was measured:
Type in all cases: cell-based
[1] = tested on: human iPS cells (201B7 strain); assay: Immunostaining of aggregate frozen sections for retinal tissue markers Chx10 and Rx; parameters: proportion of Chx10-positive cells: dose or concentration left out as unconfirmed; details: Example 3, Essential 8, SAG day 0, day 18
From the text: (§1) Cell aggregates on day 18 after the start of suspension culturing were fixed with 4% para-formaldehyde to produce frozen sections. These frozen sections were immunostained for Chx10 (anti-Chx10 antibody, Exalpha, sheep), which is one of the retinal tissue markers, or Rx (anti-Rx antibody, manufactured by TAKARA, guinea pig), which is one of the retinal tissue markers.
Cell aggregates on day 18 after the start of suspension culturing were fixed with 4% para-formaldehyde to produce frozen sections. These frozen sections were immunostained for Chx10 (anti-Chx10 antibody, Exalpha, sheep), which is one of the retinal tissue markers.

[2] = tested on: human iPS cells (DSPC-3 strain); assay: as above; details: Example 8; SAG 300 nM day 0; BMP4 1.5 nM day 3; day 22
From the text: as §1, with “22” for “18”, “Takara,” for “TAKARA,”

[3] = tested on: human iPS cells (1231A3 strain); assay: Immunostaining of aggregate cryosections for retinal tissue markers Chx10 and Rx
From the text: The above cell aggregates on day 19 after the start of suspension culturing were each fixed with 4% para-formaldehyde to give cryosections. These cryosections were immunostained for Chx10 (anti-Chx10 antibody, manufactured by Exalpha, sheep), which is one of the retinal tissue markers, or Rx (anti-Rx antibody, manufactured by TAKARA, guinea pig), which is one of the retinal tissue markers. In judgment of whether the above marker is positive in the immunostaining analysis, a fluorescence intensity which is not less than 2 times higher than that of the background was taken as positive.
as §1, with “The thus-prepared cell” for “Cell”, “culturing, which were produced by adding SAG in step 2 from feeder-free iPS cells as a starting material,” for “culturing”, “markers. These immunostained sections were observed under an inverted fluorescence microscope.” for “markers.”
The cell aggregates on day 18 after the start of suspension culturing were fixed with 4% para-formaldehyde to produce frozen sections. These frozen sections were immunostained for Chx10 (anti-Chx10 antibody, Exalpha, sheep), which is one of the retinal tissue markers.

[4] = tested on: human iPS cells (DSPC-3 strain); assay: Bright field observation of cell aggregates in suspension culture (neuroepithelium formation); details: Example 8; StemFit; SAG 300 nM day 0; day 22
Experimental: The thus-prepared subconfluent human iPS cells were treated with the cell dispersion solution by using TrypLE Select (manufactured by Life Technologies), further dispersed into single cells by pipetting operation, and the above human iPS cells dispersed into single cells were suspended in 100 μl of a serum-free medium at 1.2×10^4 cells per well of a non-cell-adhesive 96-well culture plate (SUMILON SPHEROID V-bottom plate PrimeSurface 96V-bottom plate, SUMITOMO BAKELITE). Thereafter, the cells were subjected to suspension culturing at 37° C., 5% CO2. As the serum-free medium (gfCDM+KSR) therefor, a serum-free medium which is a 1:1 mixture of F-12 medium and IMDM medium supplemented with 10% KSR, 450 μM 1-monothioglycerol, 1× Chemically defined lipid concentrate was used. At the time of the start of suspension culturing (day 0 after the start of suspension culturing, start of step 2), the above serum-free medium supplemented with Y27632 (final concentration 20 μM) and further supplemented with SAG as an exogenous Shh signal transduction pathway activating substance (final concentration 300 nM), or not supplemented with SAG (final concentration 0 nM) was used (FIG. 10). On day 2 after the start of suspension culturing, cell aggregates were formed. […]

[5] = Example 1, StemFit, SAG 300 nM day 0, BMP4 1.5 nM day 6, day 19
[6] = Example 1, StemFit, SAG 300 nM day 0, no BMP4, day 19
[7] = Example 4 Condition 1, SAG 300 nM day 0, BMP4 1.5 nM day 3, day 18
[8] = Example 4 Condition 2, SAG 300 nM day 0, BMP4 1.5 nM day 6, day 18
[9] = Example 5 Condition 1, SAG 600 nM day 0, BMP4 1.5 nM day 3, day 18
[10] = Example 5 Condition 2, SAG 600 nM day 0, BMP4 1.5 nM day 6, day 18

CNC1CCC(N(Cc2cccc(-c3ccncc3)c2)C(=O)c2sc3ccccc3c2Cl)CC1 (stereo not shown) [SAG]
proportion of Rx-positive cells in the total cells ([1]; BMP4 1.5 nM day 6): not less than 40%
proportion of Chx10-positive cells ([1]; no BMP4): not more than 3%
proportion of Rx-positive cells in the total cells ([1]; no BMP4): not more than 3%
proportion of Chx10-positive cells in the total cells [2]: about 10%
proportion of Rx-positive cells in the total cells [2]: about 10%
proportion of Chx10-positive cells [3, 5]: not less than 60%
proportion of Rx-positive cells in the total cells [3, 5]: not less than 60%
proportion of Chx10-positive cells [3, 6]: less than 3%
proportion of Rx-positive cells in the total cells [3, 6]: less than 3%
proportion of Chx10-positive cells [3, 7]: about 40%
proportion of Rx-positive cells in the total cells [3, 7]: about 40%
proportion of Chx10-positive cells [3, 8]: about 40%
proportion of Rx-positive cells in the total cells [3, 8]: about 40%
proportion of Chx10-positive cells [3, 9]: about 40%
proportion of Rx-positive cells in the total cells [3, 9]: about 40%
proportion of Chx10-positive cells [3, 10]: about 40%
proportion of Rx-positive cells in the total cells [3, 10]: about 40%
presence of Chx10-positive cells in the cell aggregate ([3]; Example 7, SAG 30 nM or Shh 300 ng/ml day 0, BMP4 1.5 nM day 3, day 18): contained Chx10-positive cells
aggregate shape and neuroepithelium formation (bright field) [4]: cell aggregates were maintained, and neuroepithelium was formed
